In brackets after ≈: the same amount, converted by molar mass.

What all share (format): functional
In assay [1] the test system is Staphylococcus aureus. The assay can be described thus: Antibacterial activity against Staphylococcus aureus KCTC 209 after 24 hrs by broth microdilution method. The following applies: KCTC 209, 24 h.
Assay [2] concerns Staphylococcus aureus. Description: Antibacterial activity against Staphylococcus aureus KCTC 503 after 24 hrs by broth microdilution method. The following applies: KCTC 503, 24 h.
The subject of assay [3] is Staphylococcus aureus. Description: Antibacterial activity against Staphylococcus aureus RN4220 after 24 hrs by broth microdilution method. The following applies: RN4220, 24 h.
The subject of the next assay is Escherichia coli. The assay can be described thus: Antibacterial activity against Escherichia coli CCARM 1356 after 24 hrs by broth microdilution method. The following applies: CCARM 1356, 24 h.
Assay [4] concerns Staphylococcus aureus. The assay can be described thus: Antibacterial activity against methicillin-resistant Staphylococcus aureus CCARM 3167 clinical isolate after 24 hrs by broth microdilution method. The following applies: CCARM 3167, 24 h.
Assay [5] has as its system Staphylococcus aureus. The assay can be described thus: Antibacterial activity against methicillin-resistant Staphylococcus aureus CCARM 3506 clinical isolate after 24 hrs by broth microdilution method. The conditions noted are these: CCARM 3506, 24 h.
The subject of assay [6] is Staphylococcus aureus. Description: Antibacterial activity against quinolone-resistant Staphylococcus aureus CCARM 3505 clinical isolate after 24 hrs by broth microdilution method. The following applies: CCARM 3505, 24 h.
Assay [7] relates to Staphylococcus aureus. Description: Antibacterial activity against quinolone-resistant Staphylococcus aureus CCARM 3519 clinical isolate after 24 hrs by broth microdilution method. The conditions noted are these: CCARM 3519, 24 h.
For assay [8], the system named is Staphylococcus aureus. Description: Ratio of norfloxacin MIC to compound MIC for methicillin-resistant Staphylococcus aureus CCARM 3167 clinical isolate.
Assay [9] deals with Staphylococcus aureus. The assay can be described thus: Ratio of norfloxacin MIC to compound MIC for methicillin-resistant Staphylococcus aureus CCARM 3506 clinical isolate.
In assay [10] the test system is Staphylococcus aureus. The assay can be described thus: Ratio of norfloxacin MIC to compound MIC for quinolone-resistant Staphylococcus aureus CCARM 3505 clinical isolate.
Assay [11] has as its system Staphylococcus aureus. Description: Ratio of norfloxacin MIC to compound MIC for quinolone-resistant Staphylococcus aureus CCARM 3519 clinical isolate.

As for `O=C(/C=C/c1ccc(/C=C2\SC(=S)N([C@@H](Cc3ccccc3)C(=O)O)C2=O)cc1)c1ccc(F)cc1`, the MIC is 16 µg/mL (≈ 30.9 µM) against Staphylococcus aureus [1]; 16 µg/mL (≈ 30.9 µM) against Staphylococcus aureus [2]; 4 µg/mL (≈ 7.73 µM) against Staphylococcus aureus [3]; above 64 µg/mL with Escherichia coli; 4 µg/mL (≈ 7.73 µM) against Staphylococcus aureus [4]; 4 µg/mL (≈ 7.73 µM) in the assay on Staphylococcus aureus [5]. Also, the MIC in the assay with Staphylococcus aureus [6] and against Staphylococcus aureus [7] was 8 µg/mL (≈ 15.5 µM) in each case. For the same compound, the Ratio in the assay with Staphylococcus aureus [8], in the assay with Staphylococcus aureus [9], in the assay with Staphylococcus aureus [10] and with Staphylococcus aureus [11] was 2 throughout.

Turning to `O=C(O)[C@H](Cc1ccccc1)N1C(=O)/C(=C\c2ccc(OCc3ccccc3)cc2)SC1=S`, the MIC in the assay with Staphylococcus aureus [1] was 8 µg/mL (≈ 16.8 µM); against Staphylococcus aureus [2] it was 8 µg/mL (≈ 16.8 µM); against Staphylococcus aureus [3] it was 2 µg/mL (≈ 4.21 µM); against Escherichia coli, above 64 µg/mL; in the assay with Staphylococcus aureus [4] it was 4 µg/mL (≈ 8.41 µM); in the assay on Staphylococcus aureus [5], 8 µg/mL (≈ 16.8 µM). For the same compound, the figures for the MIC against Staphylococcus aureus [6] and against Staphylococcus aureus [7] were 4 µg/mL (≈ 8.41 µM) and 8 µg/mL (≈ 16.8 µM), respectively. Besides, the Ratio with Staphylococcus aureus [8], in the assay on Staphylococcus aureus [9], in the assay on Staphylococcus aureus [10] and in the assay on Staphylococcus aureus [11] was 2 throughout.

As to `O=C(O)[C@H](Cc1ccccc1)N1C(=O)/C(=C\c2ccc(OCc3ccccc3Cl)cc2)SC1=S`, the MIC was 8 µg/mL (≈ 15.7 µM) in the assay on Staphylococcus aureus [1]; 8 µg/mL (≈ 15.7 µM) in the assay with Staphylococcus aureus [2]; 4 µg/mL (≈ 7.84 µM) against Staphylococcus aureus [3]; above 64 µg/mL against Escherichia coli; 4 µg/mL (≈ 7.84 µM) against Staphylococcus aureus [4]; 4 µg/mL (≈ 7.84 µM) with Staphylococcus aureus [5]. For the same compound, the MIC against Staphylococcus aureus [6] and in the assay with Staphylococcus aureus [7] was 4 µg/mL (≈ 7.84 µM) each time. Besides, the Ratio with Staphylococcus aureus [8], in the assay with Staphylococcus aureus [9], in the assay on Staphylococcus aureus [10] and in the assay on Staphylococcus aureus [11] was 2 in each case.

On to `O=C(O)[C@H](Cc1ccccc1)N1C(=O)/C(=C\c2ccc(OCc3cccc(Cl)c3)cc2)SC1=S`, for which the MIC is 8 µg/mL (≈ 15.7 µM) against Staphylococcus aureus [1]; 8 µg/mL (≈ 15.7 µM) in the assay with Staphylococcus aureus [2]; 2 µg/mL (≈ 3.92 µM) in the assay on Staphylococcus aureus [3]; above 64 µg/mL in the assay with Escherichia coli; 4 µg/mL (≈ 7.84 µM) in the assay with Staphylococcus aureus [4]; 4 µg/mL (≈ 7.84 µM) against Staphylococcus aureus [5]. The MIC in the assay on Staphylococcus aureus [6] and against Staphylococcus aureus [7] was 4 µg/mL (≈ 7.84 µM) throughout. Moreover, the Ratio with Staphylococcus aureus [8], in the assay on Staphylococcus aureus [9], in the assay with Staphylococcus aureus [10] and in the assay on Staphylococcus aureus [11] was 2 throughout.

For `O=C(/C=C/c1ccc(/C=C2\SC(=S)N([C@@H](Cc3ccccc3)C(=O)O)C2=O)cc1)c1cccc(Br)c1`, the MIC is 16 µg/mL (≈ 27.7 µM) in the assay with Staphylococcus aureus [1]; 16 µg/mL (≈ 27.7 µM) against Staphylococcus aureus [2]; 8 µg/mL (≈ 13.8 µM) against Staphylococcus aureus [3]; above 64 µg/mL in the assay on Escherichia coli; 8 µg/mL (≈ 13.8 µM) against Staphylococcus aureus [4]; 8 µg/mL (≈ 13.8 µM) in the assay on Staphylococcus aureus [5]. Also, the MIC came to 8 µg/mL (≈ 13.8 µM) in the assay on Staphylococcus aureus [6] and 16 µg/mL (≈ 27.7 µM) against Staphylococcus aureus [7]. Further, the Ratio in the assay on Staphylococcus aureus [8], with Staphylococcus aureus [9], in the assay on Staphylococcus aureus [10] and in the assay with Staphylococcus aureus [11] was 2 throughout.

Consider `Cc1ccc(C(=O)/C=C/c2ccc(/C=C3\SC(=S)N([C@@H](Cc4ccccc4)C(=O)O)C3=O)cc2)cc1`, for which the MIC against Staphylococcus aureus [1] is 8 µg/mL (≈ 15.6 µM); in the assay on Staphylococcus aureus [2], 8 µg/mL (≈ 15.6 µM); against Staphylococcus aureus [3], 2 µg/mL (≈ 3.89 µM); with Escherichia coli, above 64 µg/mL; against Staphylococcus aureus [4], 2 µg/mL (≈ 3.89 µM); in the assay on Staphylococcus aureus [5], 2 µg/mL (≈ 3.89 µM). Also, the MIC in the assay on Staphylococcus aureus [6] stood at 8 µg/mL (≈ 15.6 µM); with Staphylococcus aureus [7], 2 µg/mL (≈ 3.89 µM). Moreover, the Ratio with Staphylococcus aureus [8], with Staphylococcus aureus [9], in the assay on Staphylococcus aureus [10] and in the assay on Staphylococcus aureus [11] was 2 in each case.

With `O=C(/C=C/c1ccc(/C=C2\SC(=S)N([C@@H](Cc3ccccc3)C(=O)O)C2=O)cc1)c1ccccc1F`, the MIC is 16 µg/mL (≈ 30.9 µM) against Staphylococcus aureus [1]; 16 µg/mL (≈ 30.9 µM) in the assay with Staphylococcus aureus [2]; 4 µg/mL (≈ 7.73 µM) in the assay with Staphylococcus aureus [3]; above 64 µg/mL with Escherichia coli; 4 µg/mL (≈ 7.73 µM) against Staphylococcus aureus [4]; 4 µg/mL (≈ 7.73 µM) in the assay on Staphylococcus aureus [5]. In addition, the MIC with Staphylococcus aureus [6] and in the assay with Staphylococcus aureus [7] was 8 µg/mL (≈ 15.5 µM) in each case. The Ratio in the assay on Staphylococcus aureus [8], with Staphylococcus aureus [9], with Staphylococcus aureus [10] and in the assay on Staphylococcus aureus [11] was 2 throughout.

As for `Cc1ccc(C(=O)/C=C/c2ccc(/C=C3\SC(=S)N([C@@H](Cc4ccccc4)C(=O)O)C3=O)cc2)c(C)c1`, the MIC was 16 µg/mL (≈ 30.3 µM) with Staphylococcus aureus [1]; 16 µg/mL (≈ 30.3 µM) against Staphylococcus aureus [2]; 4 µg/mL (≈ 7.58 µM) in the assay on Staphylococcus aureus [3]; above 64 µg/mL in the assay with Escherichia coli; 4 µg/mL (≈ 7.58 µM) with Staphylococcus aureus [4]; 4 µg/mL (≈ 7.58 µM) against Staphylococcus aureus [5]. In addition, the MIC in the assay with Staphylococcus aureus [6] and in the assay on Staphylococcus aureus [7] was 8 µg/mL (≈ 15.2 µM) throughout. Also, the Ratio in the assay with Staphylococcus aureus [8], in the assay with Staphylococcus aureus [9], with Staphylococcus aureus [10] and with Staphylococcus aureus [11] was 2 throughout.

`COc1ccc(C(=O)/C=C/c2ccc(/C=C3\SC(=S)N([C@@H](Cc4ccccc4)C(=O)O)C3=O)cc2)cc1`: the MIC was 16 µg/mL (≈ 30.2 µM) against Staphylococcus aureus [1]; 16 µg/mL (≈ 30.2 µM) against Staphylococcus aureus [2]; 4 µg/mL (≈ 7.55 µM) in the assay on Staphylococcus aureus [3]; above 64 µg/mL in the assay on Escherichia coli; 4 µg/mL (≈ 7.55 µM) against Staphylococcus aureus [4]; 4 µg/mL (≈ 7.55 µM) in the assay with Staphylococcus aureus [5]. Besides, the MIC against Staphylococcus aureus [6] and in the assay on Staphylococcus aureus [7] was 4 µg/mL (≈ 7.55 µM) throughout. In addition, the Ratio with Staphylococcus aureus [8], in the assay with Staphylococcus aureus [9], in the assay with Staphylococcus aureus [10] and with Staphylococcus aureus [11] was 2 each time.

Turning to `O=C(/C=C/c1ccc(/C=C2\SC(=S)N([C@@H](Cc3ccccc3)C(=O)O)C2=O)cc1)c1ccccc1Br`, the MIC with Staphylococcus aureus [1] was 16 µg/mL (≈ 27.7 µM); against Staphylococcus aureus [2] it was 16 µg/mL (≈ 27.7 µM); in the assay with Staphylococcus aureus [3], 2 µg/mL (≈ 3.46 µM); against Escherichia coli, above 64 µg/mL; with Staphylococcus aureus [4], 2 µg/mL (≈ 3.46 µM); with Staphylococcus aureus [5], 4 µg/mL (≈ 6.91 µM). In addition, the MIC against Staphylococcus aureus [6] and against Staphylococcus aureus [7] was 4 µg/mL (≈ 6.91 µM) throughout. Also, the Ratio with Staphylococcus aureus [8], in the assay on Staphylococcus aureus [9], in the assay on Staphylococcus aureus [10] and in the assay on Staphylococcus aureus [11] was 2 each time.

For the compound `O=C(/C=C/c1ccc(/C=C2\SC(=S)N([C@@H](Cc3ccccc3)C(=O)O)C2=O)cc1)c1ccc(Br)cc1`, the MIC is 4 µg/mL (≈ 6.91 µM) with Staphylococcus aureus [1]; 4 µg/mL (≈ 6.91 µM) in the assay with Staphylococcus aureus [2]; 2 µg/mL (≈ 3.46 µM) against Staphylococcus aureus [3]; above 64 µg/mL with Escherichia coli; 2 µg/mL (≈ 3.46 µM) against Staphylococcus aureus [4]; 2 µg/mL (≈ 3.46 µM) with Staphylococcus aureus [5]. Besides, the MIC against Staphylococcus aureus [6] was 8 µg/mL (≈ 13.8 µM); against Staphylococcus aureus [7], 2 µg/mL (≈ 3.46 µM). Also, the Ratio in the assay on Staphylococcus aureus [8], in the assay with Staphylococcus aureus [9], in the assay on Staphylococcus aureus [10] and in the assay on Staphylococcus aureus [11] was 2 in each case.

Values taken from ChEMBL document CHEMBL2086385, “Synthesis and antimicrobial evaluation of L-phenylalanine-derived C5-substituted rhodanine and chalcone derivatives containing thiobarbituric acid or 2-thioxo-4-thiazolidinone” (2012).
